Reference: patent US10000771B2, “Nuclear targeting sequences” (Yeda Research and Development Co. Ltd., priority 2007, dated 2018)
Ends that are not written are not given here. 2GFP = dimer of GFP proteins

What was measured:
SPS domain = test: SPS phosphorylation detected by anti pSPS Ab Western blot; type: cell-based; conditions: COS7 cells; for SPS phosphorylation upon stimulation (anti pSPS Ab recognition): stimulated with VOOH, TPA, EGF or TGFβ, immunoprecipitation and Western blot
Protocol: FIGS. 4A-4I are autoradiographs characterizing SPS phosphorylation using an Ab to the phosphorylated SPS domain. FIG. 4A illustrates an elevation of pSPS detection upon stimulation. COS cells were transfected with WT-GFP-ERK2. Twenty-four hr after transfection, the cells were serum-starved for 16 hr and subsequently treated with the general stimulator VOOH (V, 100 μM Na3VO4 and 200 μM H2O2, 15 min), TPA (T, 250 nM, 15 min), EGF (E, 50 ng/ml for 15 min), or left untreated (NT). The GFP-ERK2 was immunoprecipitated with anti GFP Ab, extensively washed, and the IP was then subjected to Western blotting with anti phospho SPS-ERK (αphoSPS-ERK) and anti general ERK (αgen-ERK) Abs. FIG. 4B is a time course of SPS phosphorylation. COS7 cells overexpressing WT-GFP-ERK2 were serum starved followed by EGF stimulation for the indicated time points. The lysates were then subjected to Western blot analysis as in FIG. 4A. FIGS. 4C-D. GFP-ERK2 was immunoprecipitated from VOOH stimulated (Act) or non-stimulated (NT), transfected COS7 cells as above. The immunoprecipitated protein was then incubated with shrimp's alkaline phosphates (SAP, 15 units, 30 min, 30° C. in the manufacturer digestion buffer), and subjected to Western blot analysis with anti phosphoSPS-ERK (αpSPS; FIG. 4C), anti phosphoTEY-ERK (αpTEY; FIG. 4D), and anti general-ERK Ab (αgen-ERK; FIGS. 4C, D). FIG. 4E. Elevation of anti pSPS Ab immunoreactivity upon stimulation of endogenous ERKs. Following serum starvation COS7 cells were treated with EGF (50 ng/ml) or VOOH (V, 100 μM Na3VO4 and 200 μM H2O2) for the indicated times. SPS phosphorylation was detected using the anti pSPS Abs, and this was compared to the amount of genral ERKs detected by αgERK. FIG. 4F. Specificity of the anti pSPS Ab. COS7 cells overexpressing either GFP-ERK2 or 244-6A mutant were serum starved for 16 hr, and then treated with EGF (50 ng/ml) for 15 min following WB analysis using αpSPS and αgERK Abs. FIG. 4G. TEY phosphorylation is not required for SPS phosphorylation. COS7 cells overexpressing WT-ERK2 or TEY-AAA were treated as described in D. FIG. 4H. COS7 cells were treated with or without UO126 prior (15 min) to EGF (50 ng/ml) stimulation for the indicated times. SPS-phosphorylation was detected using αpSPS and αgERK Abs. FIG. 4I. Phosphorylation of SPS is mediated by ERK autophosphorylation. […] The phosphorylation (^32P-ERK2) of ERK and its mutants was detected by autoradiography. […]
FIG. 9B is an autoradiograph illustrating that stimulation elevates pSPS phosphorylation of 2GFP-SPS construct. […] The total amount of immunoprecipitated 2GFP-SPS was detected with αGFP Ab. […]

importin-7 = target: T1, importin-7 (Homo sapiens, UniProt O95373); test: Coimmunoprecipitation with importin-7; type: binding; conditions: HeLa cells
T1 construct: endogenous in cells; host or cells: HeLa
Protocol: FIGS. 19A-19C are autoradiographs illustrating that phospho-SPS interacts with importin-7 and releases Nup153c binding without involvment of importin-β. […]. Interaction of ERK2 with Importin-7 is enhanced by EGF stimulation and EPE mutation. HeLa cells overexpressing WT-ERK (WT), ERK-APA (APA), ERK-EPE (EPE) or GFP were serum starved and treated with EGF (50 ng/ml, 10 min). The extracts of the treated cells were then subjected to coimmunoprecipitation using A/G beads pre-conjugated with anti GFP Ab and mild washes. The coimmunoprecipitated importin-7 (first panel) and importin-β (third panel), as well as their loading amounts (panels 2 and 4 respectively) were determined by WB using anti importin-7 (αImp7) and importin-β (αImpβ) Abs. The equal amount of immunoprecipitated ERKs was determined with anti GFP (αGFP; IP) Ab. FIG. 19B. Interaction of 2GFP-SPS and its mutants with importin-7. HeLa cells overexpressing 2GFP, 2GFP-SPS, 2GFP-APA and 2GFP-EPE constructs were subjected to coimmunoprecipitation as described in FIG. 19A (without EGF stimulation). FIG. 19C. Interaction of NUP153 with WTERK2 and its APA and EPE mutants. NUP153c is elevated in APA-ERK2, but reduced in EPE-ERK2. Immunoprecipitated and stringently washed WT-ERK2 (WT), APA-ERK2 (APA) or ERK2 from […] cells pre-treated with or without TPA (250 nM, 15 min) were incubated with 0.5 μg recombinant His-Nup153c. This was followed by mild washing, and the beads were then subjected to Western blot analysis using anti His (αHis) and anti αGFP Abs.
Immunoprecipitation. Cellular extracts of stimulated transfected cells, were incubated with anti-GFP antibody preconugated to A/G beads (Santa Cruz; (2 hr, 4° C.). Subsequently, the beads were washed twice with HNTG buffer and once with 0.5 M LiCl. The immunoprecipitates were subjected either to Western blotting as described above or to an in vitro phosphatase assay as described under Results.

T1 sequence (O95373 whole entry): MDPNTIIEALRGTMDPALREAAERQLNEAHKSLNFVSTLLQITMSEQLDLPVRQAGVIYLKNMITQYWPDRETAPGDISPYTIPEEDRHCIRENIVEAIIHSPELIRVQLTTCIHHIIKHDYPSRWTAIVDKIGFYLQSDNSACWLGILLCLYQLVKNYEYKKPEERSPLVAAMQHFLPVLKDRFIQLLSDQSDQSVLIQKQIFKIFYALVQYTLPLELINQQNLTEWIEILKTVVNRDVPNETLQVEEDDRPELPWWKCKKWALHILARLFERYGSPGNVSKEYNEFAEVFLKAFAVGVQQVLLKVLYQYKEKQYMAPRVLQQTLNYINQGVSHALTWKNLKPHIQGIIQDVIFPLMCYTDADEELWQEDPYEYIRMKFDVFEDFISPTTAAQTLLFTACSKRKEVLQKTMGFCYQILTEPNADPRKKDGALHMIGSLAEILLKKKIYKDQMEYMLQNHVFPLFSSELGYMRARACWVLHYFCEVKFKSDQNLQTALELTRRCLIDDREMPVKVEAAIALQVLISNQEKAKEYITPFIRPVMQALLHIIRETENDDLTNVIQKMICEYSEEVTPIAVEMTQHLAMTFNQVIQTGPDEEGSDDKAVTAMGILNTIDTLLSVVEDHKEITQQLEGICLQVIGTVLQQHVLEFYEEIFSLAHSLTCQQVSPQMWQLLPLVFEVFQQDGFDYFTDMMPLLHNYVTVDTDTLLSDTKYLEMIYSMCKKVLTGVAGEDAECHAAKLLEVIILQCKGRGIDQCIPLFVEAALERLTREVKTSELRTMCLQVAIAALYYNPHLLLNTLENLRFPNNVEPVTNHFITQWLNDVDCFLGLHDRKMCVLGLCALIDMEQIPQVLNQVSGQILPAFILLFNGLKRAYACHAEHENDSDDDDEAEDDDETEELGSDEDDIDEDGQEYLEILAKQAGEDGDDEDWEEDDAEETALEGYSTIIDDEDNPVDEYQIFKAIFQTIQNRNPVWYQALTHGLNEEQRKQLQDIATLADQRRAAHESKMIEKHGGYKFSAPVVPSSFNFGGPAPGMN

Row | Substance | SPS phosphorylation upon stimulation (anti pSPS Ab recognition) (SPS domain) | interaction of 2GFP constructs with importin-7 (importin-7; coimmunoprecipitation, without EGF stimulation) | time of peak SPS phosphorylation (SPS domain; following EGF stimulation) [min] | interaction of ERK2 constructs with importin-7 (importin-7; coimmunoprecipitation with anti GFP Ab, with or without stimulation)
1 | 2GFP-SPS: 2GFP with the 19 amino acid stretch containing the SPS of ERK2 (SEQ ID NO: 6) fused to its C terminus (2GFP-LDQLNHILGILGSPSQEDL) | elevates | did bind importin-7 | – | –
2 | WT-ERK2: wild-type ERK2 fused to GFP, prepared in pEGFP C1 [reference compound] | significantly increased | – | 15 | significantly increased upon TPA stimulation
